Data on 13 compounds can be found in patent US9808003B2, “Herbicidally active 2-(substituted-phenyl)-cyclopentane-1,3-dione compounds and derivatives thereof” (Syngenta Limited, priority 2013, dated 2017).

What all share (assay): Test 1A glasshouse assay, post-emergence herbicidal activity
Common to all, as to format: in vivo

The test system of assay [1] is Alopecurus myosuroides (ALOMY). Conditions: Alopecurus myosuroides, 312 h, application rate 250 g/ha, 13 days after application, visual (100%=total damage; 0%=no damage), read-out: Post-emergence Herbicidal Activity (% Phytotoxicity) ALOMY. The method, then: (§1) Seeds of a variety of test species were sown in standard soil in pots. After cultivation for one day (pre-emergence) or after 8 days cultivation (post-emergence) under controlled conditions in a glasshouse (at 24/16° C., day/night; 14 hours light; 65% humidity), the plants were sprayed with an aqueous spray solution derived from the formulation of the technical active ingredient in acetone/water (50:50) solution containing 0.5% Tween 20 (polyoxyethelyene sorbitan monolaurate, CAS RN 9005-64-5). The test plants were then grown under controlled conditions in a glasshouse (at 24/16° C., day/night; 14 hours light; 65% humidity) and watered twice daily. 13 days after application of the test herbicide, for pre- and post-emergence, the test was evaluated visually for percentage phytotoxicity to the plant (where 100%=total damage to plant; 0%=no damage to plant).
(§2) Lolium perenne (LOLPE), Alopecurus myosuroides (ALOMY), Echinochloa crus-galli (ECHCG), and Avena fatua (AVEFA); these are all grassy monocotyledonous weeds.

Another assay relates to Avena fatua (AVEFA). To be noted: Avena fatua, 312 h, application rate 250 g/ha, 13 days after application, visual (100%=total damage; 0%=no damage), read-out: Post-emergence Herbicidal Activity (% Phytotoxicity) AVEFA. The method, then: as §1, §2
Assay [2] deals with Echinochloa crus-galli (ECHCG). To be noted: Echinochloa crus-galli, 312 h, application rate 250 g/ha, 13 days after application, visual (100%=total damage; 0%=no damage), read-out: Post-emergence Herbicidal Activity (% Phytotoxicity) ECHCG. The method, then:
as §1, §2

For another assay, the system named is Lolium perenne (LOLPE). Conditions: Lolium perenne, 312 h, application rate 250 g/ha, 13 days after application, visual (100%=total damage; 0%=no damage), read-out: Post-emergence Herbicidal Activity (% Phytotoxicity) LOLPE. The method, then:
as §1, §2

Consider `Cc1cc(C)c(C2C(=O)CC(CCNC(=O)c3ccsc3)C2=O)c(C)c1` (stereo not shown) [Compound A4], for which the pest or weed control at 250 g/ha in assay [1] was 70%; with Avena fatua (AVEFA) it was 60%; in assay [2], 100%; with Lolium perenne (LOLPE), 80%.
For `Cc1cc(C)c(C2C(=O)CC(CCNC(=O)c3cccs3)C2=O)c(C)c1` (stereo not shown) [Compound A5] the same measures were 50%, 30%, 60% and 70%.
For `Cc1cc(C)c(C2C(=O)CC(CCNC(=O)c3ccc(Cl)c(Cl)c3)C2=O)c(C)c1` (stereo not shown) [Compound A6] the same measures were 30%, 60%, 90% and 90%.
The matching figures for `Cc1cc(C)c(C2C(=O)CC(CCNC(=O)c3ccco3)C2=O)c(C)c1` (stereo not shown) [Compound A7]: 60%, 50%, 90% and 60%.
Consider `Cc1cc(C)c(C2C(=O)CC(CCNC(=O)C3CCC3)C2=O)c(C)c1` (stereo not shown) [Compound A8], for which the pest or weed control at 250 g/ha is 60% in assay [1], 70% with Avena fatua (AVEFA), 80% in assay [2] and 90% with Lolium perenne (LOLPE).
The matching figures for `Cc1cc(C)c(C2C(=O)CC(CCNC(=O)C3CCCC3)C2=O)c(C)c1` (stereo not shown) [Compound A9]: 60%, 50%, 70% and 80%.
The matching figures for `CCC(=O)NCCC1CC(=O)C(c2c(C)cc(C)cc2C)C1=O` (stereo not shown) [Compound A10]: 60%, 70%, 50% and 70%.
For `COc1ccccc1C(=O)NCCC1CC(=O)C(c2c(C)cc(C)cc2C)C1=O` (stereo not shown) [Compound A11] the same measures were 70%, 70%, 100% and 100%.
For `Cc1cc(C)c(C2C(=O)CC(CCNC(=O)c3ccc(C(F)(F)F)cc3)C2=O)c(C)c1` (stereo not shown) [Compound A12], the pest or weed control at 250 g/ha in assay [1] was found to be 80%; in the assay with Avena fatua (AVEFA) it was 100%; in assay [2] it was 100%; with Lolium perenne (LOLPE), 100%.
`Cc1cc(C)c(C2C(=O)CC(CCNC(=O)c3ccc(F)c(Cl)c3)C2=O)c(C)c1` (stereo not shown) [Compound A14]: the pest or weed control at 250 g/ha in assay [1] turned out to be 60%; with Avena fatua (AVEFA), 70%; in assay [2] it was 100%; in the assay with Lolium perenne (LOLPE) it was 70%.
On to `Cc1cc(C)c(C2C(=O)CC(CCNC(=O)c3ccc(OC(F)(F)F)cc3)C2=O)c(C)c1` (stereo not shown) [Compound A15], for which the pest or weed control at 250 g/ha in assay [1] came to 60%; in the assay with Avena fatua (AVEFA), 90%; in assay [2] it was 100%; in the assay with Lolium perenne (LOLPE), 90%.
Consider `Cc1cc(C)c(C2C(=O)CC(CCNC(=O)c3ccoc3)C2=O)c(C)c1` (stereo not shown) [Compound A16], for which the pest or weed control at 250 g/ha is 60% in assay [1], 50% in the assay on Avena fatua (AVEFA), 50% in assay [2] and 60% in the assay on Lolium perenne (LOLPE).
As for `Cc1cc(C)c(C2C(=O)CC(CCNC(=O)c3ccc(F)cc3F)C2=O)c(C)c1` (stereo not shown) [Compound A17], the pest or weed control at 250 g/ha in assay [1] is 80%; in the assay on Avena fatua (AVEFA), 90%; in assay [2] it was 100%; in the assay with Lolium perenne (LOLPE) it was 100%.
